{"source": "patent EP0158545A1", "about": "“[Alpha-(alkylaminomethyl)-benzylthio]-acetic-acid derivatives, process for their preparation and their therapeutic use” (priority 1984, dated 1985)", "key": {"chiens [1]": {"test_system": "chiens", "test": "Cardiovascular tests in dogs, intraduodenal successive doses", "assay_type": "in vivo, chien", "protocol": "a) Quatre chiens (poids moyen : 13,8 kg) anesthésiés au nembutal reçoivent le CRL 41 250 par voie intraduodénale, aux doses successives de 0,1 mg/kg, 0,5 mg/kg, 1 mg/kg, 2,5 mg/kg, 5 mg/kg puis 10 mg/kg. On mesure la pression artérielle, la fréquence cardiaque, le débit artériel fémoral, le débit artériel vertébral, la température rectale et on observe la coloration de la peau.\na) Deux chiens (poids moyen : 14,5 kg) reçoivent le CRL 41 252 par voie intraduodénale, aux doses successives de 0,1 mg/kg, 0,5 mg/kg, 1 mg/kg, 2,5 mg/kg, 5 mg/kg, 10 mg/kg et 20 mg/kg. On mesure la pression artérielle, la fréquence cardiaque, le débit artériel fémoral, le débit artériel vertébral, les températures rectale et cutanée et on observe la coloration de la peau."}, "chiens [2]": {"test_system": "chiens", "test": "Influence on isoprenaline effects, dog", "assay_type": "in vivo", "conditions": "chien", "from_the_text": "(§1) b) Sur les mêmes chiens on a étudié l'influence du produit vis à vis de l'isoprénaline et de la noradrénaline.\nAvec 10,pg/kg I.V. d'isoprénaline la pression artérielle diastolique du CRL 41 252 passe de 128 à […] ([…] à 6,4 x 10^3 Pa), […]"}, "chiens [3]": {"test_system": "chiens", "test": "Influence on noradrenaline hypertension, dog", "assay_type": "in vivo", "conditions": "chien", "protocol": "as §1\nL'hyptertension à la noradrénaline (2 µg/kg I.V.) est augmentée par le CRL 41 252 ([…]), la pression artérielle systolique passe de 208 à 352 mmHg (soit environ de 2,77 x 10^4 à 4,7 x 10^4Pa) au lieu de 204 à 328 mmHg (soit environ de 2,71 à 4,3 x 10 Pa)."}, "[4]": {"test_system": "système nerveux central (SNC)", "test": "General statement of CNS (antidepressant, sedative) properties", "assay_type": "in vivo"}, "chiens [5]": {"test_system": "chiens", "test": "Cardiovascular tests in dogs, intraduodenal successive doses", "assay_type": "in vivo", "conditions": "chien, injection I.M. de 10 mg/kg"}, "[6]": {"conditions": "chien, successive I.D. doses 0,1 to 20 mg/kg"}}, "note": "Entries after “also recorded” stand apart in the source; their conditions may differ.", "data": [{"compound": "CC(C)(C)NCC(SCC(N)=O)c1ccccc1F", "note": "(racemic) [CRL 41 252, fumaratede [α-(tertiobutylaminométhyl)-2-fluorobenzyl]-thioacétamide]", "values": [{"measurement": "pression artérielle et fréquence cardiaque", "setting": "chiens [1]; [6]", "result": "n'a pas d'effet sur la pression artérielle ni sur la fréquence cardiaque"}, {"measurement": "températures rectale et cutanée", "setting": "chiens [1]; [6]", "result": "augmente les températures rectale et cutanée"}, {"measurement": "débits fémoraux", "setting": "chiens [1]; chien, voie intraduodénale, à partir de 10 mg/kg I.D.", "result": "augmente les débits fémoraux à partir de la dose de 10 mg/kg I.D."}, {"measurement": "effets vasodilatateurs (propriétés cardiovasculaires)", "setting": "chiens [1]; general statement", "result": "effets vasodilatateurs intéressants; also recorded: effets vasodilatateurs bénéfiques"}, {"measurement": "pression artérielle diastolique, before isoprénaline", "setting": "chiens [2]; after dose cumulée 39,1 mg/kg I.D., control 152", "result": 128, "unit": "mmHg"}, {"measurement": "fréquence cardiaque, before isoprénaline", "setting": "chiens [2]; after dose cumulée 39,1 mg/kg I.D., control 192", "result": 215, "unit": "battements/ minute"}, {"measurement": "effets de l'isoprénaline", "setting": "chiens [2]; after dose cumulée de 39,1 mg/kg I.D.", "result": "légèrement diminués"}, {"measurement": "pression artérielle diastolique, after isoprénaline", "setting": "chiens [2]; isoprénaline 10,pg/kg I.V., after dose cumulée 39,1 mg/kg I.D., control 48", "result": 58, "unit": "mmHg"}, {"measurement": "fréquence cardiaque, after isoprénaline", "setting": "chiens [2]; isoprénaline 10,pg/kg I.V., after dose cumulée 39,1 mg/kg I.D., control 310", "result": 302, "unit": "battements/ minute"}, {"measurement": "pression artérielle systolique, before noradrénaline", "setting": "chiens [3]; after dose cumulée 39,1 mg/kg I.D., control 204", "result": 208, "unit": "mmHg"}, {"measurement": "pression artérielle systolique, after noradrénaline", "setting": "chiens [3]; noradrénaline 2 µg/kg I.V., after dose cumulée 39,1 mg/kg I.D., control 328", "result": 352, "unit": "mmHg"}, {"measurement": "hypertension à la noradrénaline", "setting": "chiens [3]; noradrénaline 2 µg/kg I.V., dose cumulée de 39,1 mg/kg I.D.", "result": "augmentée"}, {"measurement": "propriétés antidépressives et sédatives", "setting": "[4]", "result": "propriétés antidépressives et sédatives"}, {"measurement": "débits fémoraux", "setting": "chiens [5]", "result": "cet effet étant confirmé par l'injection I.M. de 10 mg/kg"}]}]}
